The molecules below were run on STING pathway (assay: STING reporter assay: luciferase reporter activity in THP1-Dual KO-IFNAR2 cells activated with 2'3'cGAMP). Conditions: Homo sapiens, 2'3'cGAMP 15 μM, 24 h, read-out: hSTING EC50.
Type: cell-based
Description: STING pathway activation by the compounds described herein was measured using THP1-Dual™ cells (KO-IFNAR2).
THP1-Dual™ KO-IFNAR2 Cells (obtained from invivogen) were maintained in RPMI, 10% FCS, 5 ml P/S, 2 mM L-glut, 10 mM Hepes, and 1 mM sodium pyruvate. Compounds were spotted in empty 384 well tissue culture plates (Greiner 781182) by Echo for a final concentration of 0.0017-100 μM. Cells were plated into the TC plates at 40 μL per well, 2×10E6 cells/mL. For activation with STING ligand, 2′3′cGAMP (MW 718.38, obtained from Invivogen), was prepared in Optimem media.
The following solutions were prepared for each 1×384 plate: • Solution A: 2 mL Optimem with one of the following stimuli: • 60 μL of 10 mM 2′3′cGAMP→150 μM stock • Solution B: 2 mL Optimem with 60 μL Lipofectamine 2000→Incubate 5 min at RT
2 mL of solution A and 2 ml Solution B was mixed and incubated for 20 min at room temperature (RT). 20 μL of transfection solution (A+B) was added on top of the plated cells, with a final 2′3′cGAMP concentration of 15 μM. The plates were then centrifuged immediately at 340 g for 1 minute, after which they were incubated at 37° C., 5% CO2,>98% humidity for 24 h. Luciferase reporter activity was then measured. EC50 values were calculated by using standard methods known in the art.
Luciferase reporter assay: 10 μL of supernatant from the assay was transferred to white 384-plate with flat bottom and squared wells. One pouch of QUANTI-Luc™ Plus was dissolved in 25 mL of water. 100 μL of QLC Stabilizer per 25 mL of QUANTI-Luc™ Plus solution was added. 50 μL of QUANTI-Luc™ Plus/QLC solution per well was then added. Luminescence was measured on a Platereader (e.g., Spectramax I3X (Molecular Devices GF3637001)).
Luciferase reporter activity was then measured. EC50 values were calculated by using standard methods known in the art.

Structure (SMILES) | EC50 [nM]
O=C(Nc1c[nH]c2cc(F)c(F)cc12)c1ccc(OCCCC(F)(F)F)nc1 [Compound 138, N-(5,6-difluoro-1H-indol-3-yl)-6-(4,4,4-trifluorobutoxy)nicotinamide] | 200 to 1000
O=C(Nc1c[nH]c2cc(F)c(F)cc12)c1ccc(OCCCC(F)(F)F)cn1 [Compound 139, N-(5,6-difluoro-1H-indol-3-yl)-5-(4,4,4-trifluorobutoxy)picolinamide] | 200 to 1000
O=C(Nc1c[nH]c2cc(F)c(F)cc12)c1ccc(OCCCC(F)(F)F)c(F)c1 [Compound 142, N-(5,6-difluoro-1H-indol-3-yl)-3-fluoro-4-(4,4,4-trifluorobutoxy)benzamide] | 200 to 1000
COc1ccc2[nH]cc(NC(=O)c3ccc(OCCCC(F)(F)F)c(F)c3)c2n1 [Compound 143, 3-fluoro-N-(5-methoxy-1H-pyrrolo[3,2-b]pyridin-3-yl)-4-(4,4,4-trifluorobutoxy)benzamide] | 1000 to 5000
O=C(Nc1c[nH]c2ncc(F)cc12)c1ccc(OCCCC(F)(F)F)c(F)c1 [Compound 144, 3-fluoro-N-(5-fluoro-1H-pyrrolo[2,3-b]pyridin-3-yl)-4-(4,4,4-trifluorobutoxy)benzamide] | 1000 to 5000
N#Cc1ccc2[nH]cc(NC(=O)c3ccc(OCCCC(F)(F)F)c(F)c3)c2c1 [Compound 145, N-(5-cyano-1H-indol-3-yl)-3-fluoro-4-(4,4,4-trifluorobutoxy)benzamide] | 200 to 1000
O=C(Nc1c[nH]c2ccc(F)cc12)c1ccc(OCCCC(F)(F)F)c(F)c1 [Compound 146, 3-fluoro-N-(5-fluoro-1H-indol-3-yl)-4-(4,4,4-trifluorobutoxy)benzamide] | 40 to 200
O=C(Nc1c[nH]c2cc(F)c(F)cc12)c1cnc(OCCCC(F)(F)F)cn1 [Compound 148, N-(5,6-difluoro-1H-indol-3-yl)-5-(4,4,4-trifluorobutoxy)pyrazine-2-carboxamide] | 200 to 1000
O=C(Nc1c[nH]c2cc(F)c(F)cc12)c1ccc(OC2CC(F)(F)C2)c(F)c1 [Compound 149, N-(5,6-difluoro-1H-indol-3-yl)-4-(3,3-difluorocyclobutoxy)-3-fluorobenzamide] | 200 to 1000
N#Cc1cc(C(=O)Nc2c[nH]c3cc(F)c(F)cc23)ccc1OCCCC(F)(F)F [Compound 150, 3-cyano-N-(5,6-difluoro-1H-indol-3-yl)-4-(4,4,4-trifluorobutoxy)benzamide] | 40 to 200
O=C(Nc1c[nH]c2cc(F)c(F)cc12)c1ccc(OCCCC(F)(F)F)c(Cl)c1 [Compound 151, 3-chloro-N-(5,6-difluoro-1H-indol-3-yl)-4-(4,4,4-trifluorobutoxy)benzamide] | 200 to 1000
O=C(Nc1c[nH]c2ccc(Cl)cc12)c1ccc(OCCCC(F)(F)F)c(F)c1 [Compound 153, N-(5-chloro-1H-indol-3-yl)-3-fluoro-4-(4,4,4-trifluorobutoxy)benzamide] | 200 to 1000
Cc1cc(C(=O)Nc2c[nH]c3cc(F)c(F)cc23)ccc1OCCCC(F)(F)F [Compound 155, N-(5,6-difluoro-1H-indol-3-yl)-3-methyl-4-(4,4,4-trifluorobutoxy)benzamide] | 40 to 200
COCc1ccc(-n2cc(-c3ccc4[nH]cc(NC(=O)c5ccc(OCCCC(F)(F)F)cc5)c4c3)cn2)cc1 [Compound 162, N-(5-(1-(4-(methoxymethyl)phenyl)-1H-pyrazol-4-yl)-1H-indol-3-yl)-4-(4,4,4-trifluorobutoxy)benzamide] | 40 to 200
Cc1cc(C(=O)Nc2c[nH]c3cc(F)c(F)cc23)ccc1OC1CC(F)(F)C1 [Compound 165, N-(5,6-difluoro-1H-indol-3-yl)-4-(3,3-difluorocyclobutoxy)-3-methylbenzamide] | 40 to 200

Further lines, results first:

EC50 [nM] | Structure (SMILES)
200 to 1000 | O=C(Nc1c[nH]c2cc(F)c(F)cc12)c1ccc(OCc2ccccc2)cc1 [Compound 136, 4-(benzyloxy)-N-(5,6-difluoro-1H-indol-3-yl)benzamide]
200 to 1000 | O=C(Nc1c[nH]c2cc(F)c(F)cc12)c1cnc(N2CC(F)(F)C2)c(Cl)c1 [Compound 137, 5-chloro-N-(5,6-difluoro-1H-indol-3-yl)-6-(3,3-difluoroazetidin-1-yl)nicotinamide]
200 to 1000 | O=C(Nc1c[nH]c2cc(F)c(F)cc12)c1cnc(OCCC(F)(F)F)c(F)c1 [Compound 140, N-(5,6-difluoro-1H-indol-3-yl)-5-fluoro-6-(3,3,3-trifluoropropoxy)nicotinamide]
200 to 1000 | O=C(Nc1c[nH]c2cc(F)c(F)cc12)c1ccc(OCCC(F)(F)F)cc1 [Compound 141, N-(5,6-difluoro-1H-indol-3-yl)-4-(3,3,3-trifluoropropoxy)benzamide]
200 to 1000 | CCOc1ccc(C(=O)Nc2c[nH]c3cc(F)c(F)cc23)cc1 [Compound 147, N-(5,6-difluoro-1H-indol-3-yl)-4-ethoxybenzamide]
200 to 1000 | O=C(Nc1c[nH]c2cc(F)c(F)cc12)c1ccc(OCC(F)(F)F)cc1 [Compound 152, N-(5,6-difluoro-1H-indol-3-yl)-4-(2,2,2-trifluoroethoxy)benzamide]
200 to 1000 | O=C(Nc1c[nH]c2cc(F)c(F)cc12)c1cnc(N2CCC(F)(F)CC2)c(F)c1 [Compound 154, N-(5,6-difluoro-1H-indol-3-yl)-6-(4,4-difluoropiperidin-1-yl)-5-fluoronicotinamide]
200 to 1000 | O=C(Nc1c[nH]c2cc(F)c(F)cc12)c1cnc(N2CCC(F)(F)CC2)c(Cl)c1 [Compound 156, 5-chloro-N-(5,6-difluoro-1H-indol-3-yl)-6-(4,4-difluoropiperidin-1-yl)nicotinamide]
200 to 1000 | COCCOc1ccc(C(=O)Nc2c[nH]c3cc(F)c(F)cc23)cn1 [Compound 157, N-(5,6-difluoro-1H-indol-3-yl)-6-(2-methoxyethoxy)nicotinamide]
40 to 200 | O=C(Nc1c[nH]c2cc(F)c(F)cc12)c1ccc(C2CCC(F)(F)CC2)cc1 [Compound 158, N-(5,6-difluoro-1H-indol-3-yl)-4-(4,4-difluorocyclohexyl)benzamide]
40 to 200 | O=C(Nc1c[nH]c2cc(F)c(F)cc12)c1ccc(N2CCC(F)(F)CC2)nc1 [Compound 159, N-(5,6-difluoro-1H-indol-3-yl)-6-(4,4-difluoropiperidin-1-yl)nicotinamide]
40 to 200 | O=C(Nc1c[nH]c2cc(F)c(F)cc12)c1ccc(OCCC(F)(F)F)c(F)c1 [Compound 160, N-(5,6-difluoro-1H-indol-3-yl)-3-fluoro-4-(3,3,3-trifluoropropoxy)benzamide]
40 to 200 | COCCC1CCN(c2ncc(C(=O)Nc3c[nH]c4cc(F)c(F)cc34)cc2Cl)CC1 [Compound 163, 5-chloro-N-(5,6-difluoro-1H-indol-3-yl)-6-(4-(2-methoxyethyl)piperidin-1-yl)nicotinamide]
1000 to 5000 | O=C(Nc1c[nH]c2cc(F)c(F)cc12)c1ccnc(NCCCC(F)(F)F)n1 [Compound 164, N-(5,6-difluoro-1H-indol-3-yl)-2-((4,4,4-trifluorobutyl)amino)pyrimidine-4-carboxamide]
200 to 1000 | O=C(Nc1c[nH]c2cc(F)c(F)cc12)c1ccc(C2CCC(F)(F)CC2)c(Cl)c1 [Compound 166, 3-chloro-N-(5,6-difluoro-1H-indol-3-yl)-4-(4,4-difluorocyclohexyl)benzamide]
200 to 1000 | O=C(Nc1c[nH]c2cc(F)c(F)cc12)c1ccc(OC2CCCC2)cc1 [Compound 168, 4-(cyclopentyloxy)-N-(5,6-difluoro-1H-indol-3-yl)benzamide]

Reference: US20230250106A1, “COMPOUNDS AND COMPOSITIONS FOR TREATING CONDITIONS ASSOCIATED WITH STING ACTIVITY” (IFM Due, Inc., priority 2020, published 2023)
